Data taken from patent US6689609B1, “Enhancing germination of plant somatic embryos by priming” (Cellfor Inc., priority 1999, dated 2004).

Key:
[1] = tested on: interior spruce somatic embryos; experiment: Plant growth regulators added to horticultural growing substrate after sowing: ex vitro germination and rooting of nutriprimed interior spruce somatic embryos; type: in vivo, Picea glauca (Moench) Voss x P. engelmannii Parry ex Engelm.; settings: primed
Description: The second study assessing the effects of plant growth regulators on germination performance of nutriprimed somatic embryos involved additions of plant growth regulators to the horticultural growing substrates after the nutriprimed somatic embryos were sown ex vitro. In this study, somatic embryos from interior spruce genotypes 4-2809, 23-2672, and I-1026 were desiccated and stored as described for the first growth regulator study. Prior to nutripriming, genotype I-1026 was imbibed with a matripriming step which consisted of placing the desiccated embryos onto a screen, and then placing the screen on the surface of an agar substrate gelled with 3% phytogel foe 18 hrs. After this imbibition step was completed for genotype I-1026, all three genotypes were nutriprimed for 84 hr in 3% w/v sucrose m24GMD nutripriming solutions and then sown ex vitro into 400-cavity styrofoam miniplug trays filled with peat bound by a polymer (Grow-Tech Inc., San Bautista, Calif.). After sowing was completed, the nutriprimed embryo received exogenous applications of one of the treatments described in Table 8.3.
After the exogenous application of the plant growth regulator treatments, the blocks were placed onto a non-sterile high-humidity (≧95% RH) germination chamber for one week. Immediately after the trays containing ex vitro sown nutriprimed embryos were placed into the non-sterile high-humidity germination chamber, they were misted with m24GMD solution containing 3% w/v sucrose until the surfaces of the non-sterile growing substrates were well-wetted, and then at daily intervals for a period of 7 days. After the initial 7-day period in the non-sterile high-humidity germination environment, the trays were moved to a non-sterile misting chamber (RH ranged between 75-90%) for two more weeks of growth under an 18-hour photoperiod of […] PAR with day-night temperatures of 18-23° C. Daily applications of the m24GMD nutrient solution containing 3% w/v sucrose were misted onto the germinants through to the end of the two-week period in the misting chamber. Aseptic techniques or conditions were not used for application of the nutrient solutions, nor for the germination and growing environments during the 3-week culture period.
At the end of the three-week germination period, all survived germinants were counted and examined for root initiation. Germination and rooting percentages were calculated based on total number of embryos sown in each replicate.

[2] = tested on: interior spruce somatic embryos; experiment: Plant growth regulators added to nutripriming solutions: ex vitro germination and rooting of interior spruce somatic embryos; type: in vivo, Picea glauca (Moench) Voss x P. engelmannii Parry ex Engelm.
Description: Mature somatic embryos of interior spruce (Picea glauca (Moench) Voss x P. engelmannii Parry ex Engelm.) genotypes 4-2809, 23-2672, and I-1026 were desiccated with the HRHT treatment. Genotype I-1026 was further desiccated at 85% RH for three days, then stored at −20C. Prior to nutripriming, genotype I-1026 was imbibed with a matripriming step which consisted of placing the desiccated embryos onto a screen, and then placing the screen on the surface of an agar substrate gelled with 3% phytogel for 18 hrs. After this imbibition step was completed for genotype I-1026, all three genotypes were nutriprimed for 84 hr in 3% w/v sucrose m24GMD nutripriming solutions amended with the plant growth regulators described in Table 8.1.
After the nutripriming step was completed, the nutriprimed somatic embryos were sown ex vitro into 400-cavity styrofoam miniplug trays filled with peat bound by a polymer (Grow-Tech Inc., San Bautista, Calif.). After sowing, the trays were placed into a non-sterile high-humidity (≧95% RH) germination chamber for one week. In both studies, immediately after the trays containing ex vitro sown nutriprimed embryos were placed into the non-sterile high-humidity germination chamber, they were misted with m24GMD solution containing 3% w/v sucrose until the surfaces of the non-sterile growing substrates were well-wetted, and subsequently at daily intervals for a period of 7 days. After the initial 7-day period in the non-sterile high-humidity germination environment, the trays were moved to a non-sterile misting chamber (RH ranged between 75-90%) for two more weeks of growth under an 18-hour photoperiod of […] PAR with day-night temperatures of 18-23° C. Daily applications of the m24GMD nutrient solution containing 3% w/v sucrose were misted onto the germinants through to the end of the two-week period in the misting chamber. Aseptic techniques or conditions were not used for application of the nutrient solutions, or for the germination and growing environments during the 3-week culture period.
At the end of the three-week germination period, all germinated embryos and seedlings were counted and examined for root initiation. Germination and rooting percentages were calculated based on total number of embryos sown in each replicate. The rooting percentage measures the plant conversion rate since the survived germinants can have perfectly elongated and formed shoot, but without root initiation.

[3] = genotype 4-2809, HRHT, IBA 0.2 μM
[4] = genotype 4-2809, HRHT, substrate given no regulator or IBA 0.1 μM alone, + BA 0.02 μM, + BA 0.02 μM + GA4/7 0.2 μM (so in the source), or + GA4/7 0.1 μM
[5] = genotype 23-2672, HRHT, IBA 0.2 μM
[6] = genotype 23-2672, HRHT, substrate given no regulator or IBA 0.1 μM alone, + BA 0.02 μM, + BA 0.02 μM + GA4/7 0.2 μM (so in the source), or + GA4/7 0.1 μM
[7] = genotype I-1026, 85% & frozen, IBA 0.2 μM
[8] = genotype I-1026, 85% & frozen, substrate given no regulator or IBA 0.1 μM alone, + BA 0.02 μM, + BA 0.02 μM + GA4/7 0.2 μM (so in the source), or + GA4/7 0.1 μM
[9] = genotype 4-2809, HRHT, IBA 0.1 μM in priming solution
[10] = genotype 4-2809, HRHT, priming solution with no regulator or IBA 0.05 μM alone, + BA 0.01 μM, + BA 0.01 μM + GA4/7 0.01 μM, or + GA4/7 0.05 μM
[11] = genotype 23-2672, HRHT, IBA 0.1 μM in priming solution
[12] = genotype 23-2672, HRHT, priming solution with no regulator or IBA 0.05 μM alone, + BA 0.01 μM, + BA 0.01 μM + GA4/7 0.01 μM, or + GA4/7 0.05 μM
[13] = genotype I-1026, 85% & frozen, IBA 0.1 μM in priming solution
[14] = genotype I-1026, 85% & frozen, priming solution with no regulator or IBA 0.05 μM alone, + BA 0.01 μM, + BA 0.01 μM + GA4/7 0.01 μM, or + GA4/7 0.05 μM

O=C(O)CCCc1c[nH]c2ccccc12 [IBA, indole-butyric-acid]
Germination % [1, 3]: 97.5 ± 1.4%
Rooting % [1, 3]: 78.8 ± 7.5%
Germination % [1, 4]: 92.5 ± 7.5%
Rooting % [1, 4]: 75.0 ± 10.2%
Germination % [1, 5]: 72.5 ± 10.9%
Rooting % [1, 5]: 67.5 ± 10.1%
Germination % [1, 6]: 72.5 ± 11. %
Rooting % [1, 6]: 61.3 ± 13.4%
Germination % [1, 7]: 80.0 ± 6.8%
Rooting % [1, 7]: 65.0 ± 5.4%
Germination % [1, 8]: 91.3 ± 5.5%
Rooting % [1, 8]: 66.3 ± 3.7%
Germination % [2, 9]: 68.8 ± 5.2%
Rooting % [2, 9]: 51.3 ± 4.3%
Germination % [2, 10]: 92.5 ± 6.0%
Rooting % [2, 10]: 82.5 ± 6.0%
Germination % [2, 11]: 82.5 ± 9.7%
Rooting % [2, 11]: 72.5 ± 6.3%
Germination % [2, 12]: 90.0 ± 3.5%
Rooting % [2, 12]: 71.3 ± 6.6%
Germination % [2, 13]: 88.8 ± 6.6%
Rooting % [2, 13]: 58.8 ± 5.9%
Germination % [2, 14]: 93.8 ± 2.4%
Rooting % [2, 14]: 66.3 ± 4.7%
